Test results: patent publication US20110217297A1, “METHODS FOR CLASSIFYING AND TREATING BREAST CANCERS” (priority 2010, published 2011)
Entries after “also recorded” stand apart in the source; their conditions may differ.

Legend:
tumors = details: TNP-470 below maximum tolerated dose plus cyclophosphamide 170 mg/kg, every 6 days, in combination; cited from earlier work
[1] = tested on: breast cancer molecular subtypes I-VI; assay: Metastasis-free and overall survival of breast cancer patients treated with CMF or CAF adjuvant chemotherapy, compared in each molecular subtype (log-rank test); type: in vivo, human; details: for sensitivity / response of the breast cancer subtype to the drug or regimen: molecular subtype IV breast cancer, inferred from CMF vs CAF survival
Text: Patients who had been diagnosed, treated and followed for breast cancer progression between 1991 and 2003 at the Koo Foundation Sun Yat-Sen Cancer Center (KFSYSCC), and had their fresh breast cancer tissue frozen in liquid nitrogen at the institutional tumor bank were identified. […] The study was approved by the institutional review board. Samples deposited in the tumor bank were randomly selected. A total of 447 cases were available. Samples of insufficient RNA (n=1), poor RNA quality (n=116) or unacceptable microarray quality (n=18) were excluded from the study, leaving 312 random samples available (Cohort-1). Gene expression profiles of 15 additional lobular carcinomas of breast collected between 1999 and 2004 were also included in the study (Cohort 2). Thus, the total number of samples was 327.
All statistical analyses were conducted using SAS/STAT software (ver. 9.1.3) (SAS Institute, Inc.) and R software package (v2.6) from Bioconductor. Fisher's exact test was conducted to determine statistical correlation between molecular subtypes and various clinical phenotypes. The exact p values were estimated by Monte Carlo simulation. Log-rank test was used to analyze survival differences between different molecular subtypes or treatment groups.
The breast cancer samples used in this study were collected over a period of more than 10 years. The period covered a major shift of chemotherapy regimen from CMF (cyclophosphamide-methotrexate-fluorouracil) therapy to CAF (cyclophosphamide-adriamycin-fluorouracil) therapy around 1997 and 1998. The cohorts in this study offered a precious opportunity to investigate how different molecular subtypes of breast cancer responded differently to this change of adjuvant chemotherapy regimen.
Metastasis-free and overall survival were compared for patients treated with CMF and CAF for adjuvant therapy in each molecular subtype. […] Nevertheless, the CAF group had more N stage=1 patients and the CMF group had more N stage=0 patients (Table 15b).

## CO[C@@H]1[C@H](OC(=O)NC(=O)CCl)CC[C@]2(CO2)[C@H]1[C@@]1(C)O[C@@H]1CC=C(C)C [TNP-470]
tumors
  tumor response to the treatment regimen: complete regression

## COc1cccc2c1C(=O)c1c(O)c3c(c(O)c1C2=O)C[C@@](O)(C(=O)CO)C[C@@H]3O[C@H]1C[C@H](N)[C@H](O)[C@H](C)O1 [adriamycin, doxorubicin]
[1]; molecular subtype IV breast cancer patients, adjuvant chemotherapy after surgery
  treatment results (metastasis-free and overall survival), CAF vs CMF adjuvant chemotherapy: dramatic impact; also recorded: significantly improved
[1]
  sensitivity / response of the breast cancer subtype to the drug or regimen: very sensitive

## O=P1(N(CCCl)CCCl)NCCCO1 (centres unmarked) [cyclophosphamide]
tumors
  tumor response to the treatment regimen: complete regression

## CN(Cc1cnc2nc(N)nc(N)c2n1)c1ccc(C(=O)N[C@@H](CCC(=O)O)C(=O)O)cc1 [methotrexate]
[1]
  sensitivity / response of the breast cancer subtype to the drug or regimen: relatively insensitive
